Test results taken from patent US20070249526A1, “PROCESS FOR THE PREPARATION OF CYCLIC PEPTIDES” (priority 2003, published 2007).

Columns and labels:
human C5a receptor [1] = biological target: T1, human C5a receptor (Homo sapiens, UniProt P21730); conditions: literature refs 6-9; cited from earlier work
T1 construct: host or cells: human cells; neutrophils, macrophages, polymorphonuclear leukocytes
T1 sequence (P21730 1-350): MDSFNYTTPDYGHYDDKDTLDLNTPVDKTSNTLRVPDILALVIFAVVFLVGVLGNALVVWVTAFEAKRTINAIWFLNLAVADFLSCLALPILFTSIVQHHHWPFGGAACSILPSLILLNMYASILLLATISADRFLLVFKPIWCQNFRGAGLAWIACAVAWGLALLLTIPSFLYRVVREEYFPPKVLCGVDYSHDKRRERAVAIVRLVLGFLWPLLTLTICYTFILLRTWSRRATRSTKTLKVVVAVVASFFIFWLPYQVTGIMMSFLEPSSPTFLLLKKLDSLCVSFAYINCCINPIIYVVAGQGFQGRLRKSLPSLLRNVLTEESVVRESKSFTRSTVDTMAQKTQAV

human C5a receptor [2] = biological target: T1, human C5a receptor; conditions: literature refs 6-9; cited from earlier work; remark: listed apart in the source
physchem = format: physicochemical
Protocol: The crude product of Example 15 was purified by prep HPLC using 0.5% AcOH in water and 0.5% AcOH in 90% ACN in water as buffers. The crude product was purified in a gradient program and major fraction was collected. After lyophilization, it gave a white powder which failed the solubility test at 10 mg/ml. ^19F NMR confirmed that there were still two TFA salts in the formula (FIG. 1). This product was repurified on the prepHPLC once more, the major fraction was collected and lyophilized to give 3D53. 12 mg of this product dissolved in 1 ml water gave a clear solution.

[3] = test system: rat models of human disease; conditions: literature refs 10-15; cited from earlier work

solubility (physchem): < 10000 µg/mL | amount dissolved giving a clear solution (physchem; in 1 ml water, product repurified by prepHPLC, no TFA salt by 19F NMR): ≥ 12 mg
Compound: CC(=O)N[C@@H](Cc1ccccc1)C(=O)N[C@H]1CCCNC(=O)[C@H](CCCNC(=N)N)NC(=O)C(Cc2c[nH]c3ccccc23)NC(=O)[C@@H](CC2CCCCC2)NC(=O)C2CCCN2C1=O (stereo partly drawn) [Compound 1, Ac-Phe[Orn-Pro-D-Cha-Trp-Arg]]
inhibition in vitro of C5a-mediated activation of neutrophils and macrophages, chemotaxis, and cytokine release (human C5a receptor [1]): potent inhibition | inhibition in vitro of C5a binding to human cells (human C5a receptor [2]): potent inhibition | inhibition in vivo in rat models of human disease [3]: potent inhibition
